One compound from US10654818B2, “Furane derivatives as inhibitors of ATAD2” (BAYER PHARMA AKTIENGESELLSCHAFT, priority 2015, dated 2020) can be followed below.

One test relates to MCF7 breast cancer cells. As to the kind of experiment: Cell proliferation assay (alamarBlue), MCF7. The class given is cell-based. As to conditions: Homo sapiens, 72 h incubation, GI50 = half-maximal growth inhibition. The procedure: (§1) The effect of ATAD2 inhibitory compounds on cancer cell proliferation might be measured as below. For example; MCF7 breast cancer cells might be seeded into 96-well microtiter plates at 2000 cells/well in 90 μl cell culture media (RPMI 1640, 10% FCS, 2 mM L-Glutamine, 10 μg/ml human Insulin, […]) and incubated for 24 h at 37° C. and 5% CO2. Note, the culturing conditions might vary from cell line to cell line depending on their standard culturing conditions. Compounds might be then delivered to the microtiter assay plates and, following a 72 h long incubation period at 37° C. and 5% CO2, the viability of the cells might be measured with addition of alamarBlue® (Invitrogen) to the medium in Victor X3 Multilabel Plate Reader (Perkin Elmer).
(§2) GI50 means half-maximal growth inhibition.
(In general: Alamar Blue is a resazurin reagent that responds to reducing activity.)

For a further test, the system named is NCl-H526 lung cancer. As to the kind of experiment: Cell proliferation assay (alamarBlue), NCl-H526. As to conditions: GI50 = half-maximal growth inhibition. The class given is cell-based. The procedure:
as §1, §2

The target in test [1] is T1, recombinant, N-terminally GST-tagged ATAD2 bromodomain amino acids 981-1108 (Homo sapiens, UniProt Q6PL18).
T1 construct: ATAD2 bromodomain amino acids 981-1108; made in house; host or cells: E. coli
T1 sequence (Q6PL18 981-1108): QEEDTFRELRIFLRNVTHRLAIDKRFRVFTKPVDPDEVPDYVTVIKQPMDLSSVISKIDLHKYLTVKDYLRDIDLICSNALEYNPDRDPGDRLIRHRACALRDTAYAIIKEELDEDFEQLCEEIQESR
The test is described as follows: TR-FRET assay: disruption of the interaction between ATAD2 and acetylated Histone H4 (Ac-H4) peptide. As to conditions: inhibition of ATAD2/Ac-H4 complex formation; 10 nM ATAD2, 50 nM Ac-H4 peptide. The class given is binding. The method in brief:
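10 nM protein (final) pre-incubated 10 min at 22 °C with compound (0.1 nM-20 μM, 11 points, duplicate), then 50 nM biotinylated Ac-H4 peptide plus anti-GST-XL665/streptavidin-Eu added for 1 h at 22 °C in HEPES pH 7.5 buffer. 665/622 nm emission ratio read; IC50 from 4-parameter fit of normalized inhibition.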
In general terms: In TR-FRET formats the signal depends on donor and acceptor labels being close together.

By GI50 is commonly meant the concentration giving 50% growth inhibition. What is called IC50 is the concentration that gives 50% inhibition. `Cc1ccc([C@@H](C)NCc2ccc(-c3ccc(Cl)c(C(=O)N[C@@H](C)Cc4ccc(C#N)cc4)c3)o2)cc1` [Example 42, 2-chloro-N-[(2S)-1-(4-cyanophenyl)propan-2-yl]-5-[5-({[(1R)-1-(4-methylphenyl)ethyl]amino}methyl)-2-furyl]benzamide]: the figures for the concentration for 50% growth inhibition (GI50) in the test with MCF7 breast cancer cells and with NCl-H526 lung cancer were 11.9 µM and > 30 µM, respectively. The IC50 in test [1] was determined as 1.1 µM.
